Measured values reported in US20260226493A1, “HERBICIDE RESISTANT PLANTS” (SYNGENTA CROP PROTECTION AG, priority 2023, published 2026).

Tests used:
Type in all cases: biochemical
[1] = molecular target: T1, Arabidopsis thaliana BIO3-BIO1 (BioDA) mutants (Arabidopsis thaliana, UniProt B0F481, S509Q); assay: BIO3-BIO1 mutant enzyme activity in the presence of herbicide, percentage inhibition (fluorometric DAPA assay); conditions: read-out: percentage inhibition
T1 construct: with the predicted N-terminal mitochondrial transit peptide removed; 6xHis-tag (N); thrombin cleavage site (N); made in house; host or cells: E. coli BL21 (DE3) bioA
Description: (§1) A pet-24 plasmid containing a DNA sequence encoding each identified variant mutant of BIO3-BIO1 derived from Arabidopsis thaliana from example 5 above, as shown in Table 13 below and as shown in full in SEQ ID NOs: 15 to 155, codon-optimised for expression in E. coli, with an N-terminal 6×His-tag and thrombin cleavage site and under control of a T7 promoter, and was synthesised by Twist Bioscience, in a similar manner to SEQ ID NO:311. These plasmids were then expressed in E. coli BL21 (DE3) bioA with 50 μg/mL kanamycin and 25 μg/mL chloramphenicol selection. Overnight cultures grown at 37° C. were used to inoculate 8×500 mL AIM in shake flasks at a ratio of 1:100. Cultures were grown at 37° C., 200 rpm for 3.5 hours and then overnight at 20° C. Cells were harvested by centrifugation for 30 minutes at 10 000 g. Cells were stored at −80° C. until extraction. 30 g of cell pellet from was thawed in 120 mL of IMAC buffer A (20 mM HEPES pH7.5, 25 mM imidazole, 500 mM sodium chloride, 0.15 mM pyridoxal phosphate, 0.5 mM TCEP, 1× complete Protease Inhibitor Tablet (Roche)). The resuspension was passed through a cell disrupter at 18 000 PSI and centrifuged at 50 000 g for 25 minutes at 4° C. The His-tagged BIO3-BIO1 protein was purified from the extract supernatant on an AKTA avant chromatography system (Cytiva) using a HisTrap FF column and eluted in IMAC buffer B ((20 mM HEPES pH7.5, 500 mM imidazole, 500 mM sodium chloride, 0.15 mM pyridoxal phosphate, 0.5 mM TCEP) followed by SEC using a HiLoad 26/60 Superdex200 column in SEC buffer (25 mM HEPES pH7.5, 150 mM sodium chloride, 0.15 mM pyridoxal phosphate, 0.5 mM TCEP). Protein concentration was measured and calculated using the absorbance at 280 nm. Extracts were diluted 1 in 4 and 10 uL was analysed by SDS PAGE.
(§2) To measure BIO3-BIO1 mutant enzyme activity in the presence of herbicide, herbicides were incubated with 20 μL of enzyme mix (100 mM EPPS pH 8.6, 0.1 mM pyridoxal phosphate, 0.1 mg/mL BSA, 50 nM BIO3-BIO1 enzyme) for 10 minutes at 20° C. in a well of a 96-well half-area black plate, followed by the addition of 20 μL of substrate mix (final concentration of 100 mM EPPS pH 8.6, 0.1 mM pyridoxal phosphate, 0.1 mg/mL BSA, 100 μM spermidine, 20 μM KAPA, 100 mM NaCO3) and further incubation for 75 minutes at 20° C. The reaction was terminated by the addition of 50 μL of derivatisation mix (final concentration of 250 mM borate NaOH pH 9.4, 3.6 mM o-phthalaldehyde, 7 mM β-mercaptoethanol, 17% (v/v) ethanol, 3.6% (v/v) methanol). The fluorescent product produced by the reaction of DAPA with o-phthalaldehyde and 7 mM β-mercaptoethanol was measured at 470 nm after excitation at 410 nm. The percentage inhibition was calculated as the activity in the presence of one of three concentrations of each herbicide compound A to M (note that the compounds labelled as A to M are identified hereinabove in the relevant section of the description) as a percentage of the activity in DMSO (Table 12 and 13). The percentage activity versus WT was also calculated and is shown in Table 13 and 14 (NT indicates mutation not tested in table 13, note that these mutations are tested at different compound concentrations for compounds L, M and C, and the results are shown in table 14).

[2] = tested on: Ostreococcus tauri BioDA A374D; assay: BioDA enzyme activity with DMSO or herbicide in vitro
Description: as §1, §2
(§3) The activity of various wild-type BioDA and variant enzymes was also tested when treated with DMSO or herbicide in vitro.
(§4) Protein of Schizosaccharomyces japonicus BioDA (SEQ ID NO:13), Nannochloropsis gaditana BioDA (SEQ ID NO:3), Selaginella moellendorffii BioDA (SEQ ID NO:319), Quercus robur BioDA (SEQ ID NOA11), Ostreococcus tauri BioDA (SEQ ID NO:9), and the variants of Ostreococcus tauri BioDA A374D, F332A and P407A (SEQ ID Nos:321-323) was prepared using the method in Example 6. BioDA enzyme activity in the presence of herbicide or DMSO in vitro for each of the proteins was assayed according to the enzyme assay method above. The results are shown in Table 26 provided below in the “TABLES” section.

[3] = tested on: Ostreococcus tauri BioDA F332A; assay: as above
Description: as §1, §2, §3, §4

[4] = tested on: Ostreococcus tauri BioDA P407A; assay: as above
Description: as §1, §2, §3, §4

[5] = tested on: Chitinophaga filiformis BioA; assay: BioA enzyme activity with DMSO or herbicide in vitro; conditions: spermidine in substrate mix
Description: as §1, §2
(§5) Protein of Escherichia coli BioA (SEQ ID NO:159), Pantoea ananatis BioA (SEQ ID NO:167), Streptomyces viridochromogenes BioA (SEQ ID NO:170), Cryptosporidium andersoni BioA (SEQ ID NO:160), Stenotrophomonas maltophilia BioA (SEQ ID NO:171), Chroococcidiopsis BioA (SEQ ID NO:184), Pedobacter hartonius BioA (SEQ ID NO:181), Chitinophaga filiformis BioA (SEQ ID NO:180), Tenacibaculum adriaticum BioA (SEQ ID NO:185) and Bacillus subtilis BioA (SEQ ID NO:166) was prepared using the method in Example 6. BioA enzyme activity in the presence of herbicide or DMSO in vitro for each of the proteins was assayed according to the enzyme assay method in Example 6, except in some reactions spermidine was replaced with 2 mM S-Adenosyl methionine.

Escherichia coli BioA = molecular target: T2, Escherichia coli BioA (Escherichia coli, UniProt P12995); assay: as above; conditions: SAM in substrate mix, read-out: % Inhibition relative to DMSO treatment
T2 construct: 6xHis-tag (N); thrombin cleavage site (N); made in house; host or cells: E. coli BL21 (DE3) bioA
Description: as §1, §2, §5

Pantoea ananatis BioA = assay: as above; conditions: SAM in substrate mix
Description: as §1, §2, §5

T1 sequence (B0F481 23-833 S509Q): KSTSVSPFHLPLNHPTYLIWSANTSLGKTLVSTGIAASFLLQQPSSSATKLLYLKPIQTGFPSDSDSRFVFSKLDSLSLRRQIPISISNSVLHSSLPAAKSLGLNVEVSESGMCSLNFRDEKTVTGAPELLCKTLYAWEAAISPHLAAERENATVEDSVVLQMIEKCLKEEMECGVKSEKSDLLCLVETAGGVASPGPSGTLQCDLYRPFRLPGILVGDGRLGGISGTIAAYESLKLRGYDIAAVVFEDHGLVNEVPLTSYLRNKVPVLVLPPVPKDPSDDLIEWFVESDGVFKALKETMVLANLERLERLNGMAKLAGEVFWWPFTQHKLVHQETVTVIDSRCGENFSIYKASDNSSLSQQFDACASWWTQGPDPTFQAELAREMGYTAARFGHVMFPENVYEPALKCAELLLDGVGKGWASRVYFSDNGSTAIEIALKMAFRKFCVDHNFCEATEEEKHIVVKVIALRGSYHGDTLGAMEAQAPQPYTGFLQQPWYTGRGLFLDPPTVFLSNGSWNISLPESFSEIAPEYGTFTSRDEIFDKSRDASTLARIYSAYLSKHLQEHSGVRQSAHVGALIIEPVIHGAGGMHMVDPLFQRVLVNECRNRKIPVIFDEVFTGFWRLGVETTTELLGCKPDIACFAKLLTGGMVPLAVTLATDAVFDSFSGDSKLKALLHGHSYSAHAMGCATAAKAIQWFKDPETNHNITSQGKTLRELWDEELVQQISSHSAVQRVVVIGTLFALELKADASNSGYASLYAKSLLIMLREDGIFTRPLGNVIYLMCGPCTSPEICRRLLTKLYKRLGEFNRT
T2 sequence (P12995 whole entry): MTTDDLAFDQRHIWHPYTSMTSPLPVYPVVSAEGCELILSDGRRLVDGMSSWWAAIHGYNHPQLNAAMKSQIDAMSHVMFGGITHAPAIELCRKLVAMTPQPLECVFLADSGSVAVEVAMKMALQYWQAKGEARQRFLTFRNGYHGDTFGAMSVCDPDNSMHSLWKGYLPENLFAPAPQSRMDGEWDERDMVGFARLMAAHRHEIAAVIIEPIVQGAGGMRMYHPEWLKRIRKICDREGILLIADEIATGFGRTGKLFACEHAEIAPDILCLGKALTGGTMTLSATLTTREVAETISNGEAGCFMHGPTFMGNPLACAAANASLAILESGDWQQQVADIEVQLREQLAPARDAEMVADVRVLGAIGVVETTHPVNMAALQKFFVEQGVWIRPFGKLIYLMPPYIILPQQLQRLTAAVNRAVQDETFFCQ

CCn1c(-c2ccc(Cl)c(Cl)c2)c(C(=O)O)c(=O)c2cc(F)ccc21 [Compound M, 2-(3,4-dichlorophenyl)-1-ethyl-6-fluoro-4-oxo-quinoline-3-carboxylic acid]
inhibition at 0.2 µM [1]: 23%
inhibition at 1 µM [1]: 76%
inhibition at 5 µM [1]: 96%
% Inhibition relative to DMSO treatment ([2]; 31 μM): 94%
% Inhibition relative to DMSO treatment ([2]; 500 μM): 93%
% Inhibition relative to DMSO treatment ([3]; 31 μM): 7%
% Inhibition relative to DMSO treatment ([3]; 500 μM): 46%
% Inhibition relative to DMSO treatment ([4]; 31 μM): 37%
% Inhibition relative to DMSO treatment ([4]; 500 μM): 92%
% Inhibition relative to DMSO treatment ([5]; 0.5 μM): 0%
inhibition at 0.5 µM (Escherichia coli BioA): 0%
% Inhibition relative to DMSO treatment (Pantoea ananatis BioA; 0.5 μM): 11%

CCn1c(C)c(-c2ccc(F)cc2F)c(=O)c(C(=O)O)c1-c1ccc(Cl)c(Cl)c1 [Compound C, 2-(3,4-dichlorophenyl)-5-(2,4-difluorophenyl)-1-ethyl-6-methyl-4-oxo-pyridine-3-carboxylic acid]
inhibition at 0.2 µM [1]: 23%
inhibition at 1 µM [1]: 82%
inhibition at 5 µM [1]: 99%
% Inhibition relative to DMSO treatment ([5]; 0.5 μM): 12%
inhibition at 0.5 µM (Escherichia coli BioA): 8%
% Inhibition relative to DMSO treatment (Pantoea ananatis BioA; 0.5 μM): 11%

CCOC(=O)c1nn(-c2ccc3c(c2)OC(F)(F)C(F)(F)O3)c2cccc(C(C)=O)c2c1=O [Compound A, ethyl 5-acetyl-4-oxo-1-(2,2,3,3-tetrafluoro-1,4-benzodioxin-6-yl)cinnoline-3-carboxylate]
inhibition at 1 µM [1]: 8%
% Inhibition relative to DMSO treatment ([5]; 25 μM): 0%
inhibition at 25 µM (Escherichia coli BioA; 25 μM): 6%
% Inhibition relative to DMSO treatment (Pantoea ananatis BioA; 25 μM): 7%

CC(O)C(N)CCCCC(=O)O.Cl (stereo not shown) [Compound B, [5-carboxy-1-(1-hydroxyethyl)pentyl]ammonium chloride]
% Inhibition relative to DMSO treatment ([2]; 200 μM): 95%
% Inhibition relative to DMSO treatment ([3]; 200 μM): 66%
% Inhibition relative to DMSO treatment ([4]; 200 μM): 46%
% Inhibition relative to DMSO treatment ([5]; 200 μM): 12%
inhibition at 31 µM (Escherichia coli BioA): 4%
inhibition at 200 µM (Escherichia coli BioA): 9%
inhibition at 500 µM (Escherichia coli BioA): 23%
% Inhibition relative to DMSO treatment (Pantoea ananatis BioA; 200 μM): 15%

CCn1c(Cn2ccc(C(F)(F)F)n2)cc(=O)c(C(=O)O)c1-c1ccc(Cl)c(Cl)c1 [Compound L, 2-(3,4-dichlorophenyl)-1-ethyl-4-oxo-6-[[3-(trifluoromethyl)pyrazol-1-yl]methyl]pyridine-3-carboxylic acid]
% Inhibition relative to DMSO treatment ([2]; 31 μM): 98%
% Inhibition relative to DMSO treatment ([2]; 500 μM): 93%
% Inhibition relative to DMSO treatment ([3]; 31 μM): 4%
% Inhibition relative to DMSO treatment ([3]; 500 μM): 53%
% Inhibition relative to DMSO treatment ([4]; 31 μM): 58%
% Inhibition relative to DMSO treatment ([4]; 500 μM): 94%
% Inhibition relative to DMSO treatment ([5]; 0.5 μM): 11%
inhibition at 0.5 µM (Escherichia coli BioA): 4%
inhibition at 31 µM (Escherichia coli BioA): 8%
inhibition at 500 µM (Escherichia coli BioA): 35%
% Inhibition relative to DMSO treatment (Pantoea ananatis BioA; 0.5 μM): 9%
% Inhibition relative to DMSO treatment (Pantoea ananatis BioA; 31 μM): 0%
% Inhibition relative to DMSO treatment (Pantoea ananatis BioA; 500 μM): 23%

CCn1c(C)c(-c2cc(OC(F)(F)F)ccc2Cl)c(=O)c(C(=O)O)c1-c1ccc(Cl)c(Cl)c1 [Compound D, 5-[2-chloro-5-(trifluoromethoxy)phenyl]-2-(3,4-dichlorophenyl)-1-ethyl-6-methyl-4-oxo-pyridine-3-carboxylic acid]
% Inhibition relative to DMSO treatment ([2]; 0.5 μM): 82%
% Inhibition relative to DMSO treatment ([2]; 5 μM): 95%
% Inhibition relative to DMSO treatment ([3]; 0.5 μM): 0%
% Inhibition relative to DMSO treatment ([3]; 5 μM): 7%
% Inhibition relative to DMSO treatment ([4]; 0.5 μM): 4%
% Inhibition relative to DMSO treatment ([4]; 5 μM): 26%
% Inhibition relative to DMSO treatment ([5]; 0.5 μM): 0%
inhibition at 0.5 µM (Escherichia coli BioA): 6%
% Inhibition relative to DMSO treatment (Pantoea ananatis BioA; 0.5 μM): 6%

C[C@@H](N)COc1cccc(C(=O)O)n1.Cl.Cl [Compound E, [(1R)-2-(6-carboxypyridin-1-ium-2-yl)oxy-1-methyl-ethyl]ammonium dichloride]
% Inhibition relative to DMSO treatment ([5]; 200 μM): 28%
inhibition at 200 µM (Escherichia coli BioA): 12%
% Inhibition relative to DMSO treatment (Pantoea ananatis BioA; 200 μM): 15%
